The target of series [1] is T1, Prolyl endopeptidase (Sus scrofa, UniProt P23687). In words: Inhibitory activity against prolyl oligopeptidase of porcine brain homogenate.
Series [2] can be described thus: Partition coefficient (logP) determined in a 1-octanol-phosphate buffer system. The format is physicochemical.
The target of series [3] is T1, Prolyl endopeptidase. Nature of the series: Inhibitory activity against purified porcine prolyl oligopeptidase.

T1 sequence (P23687 whole entry): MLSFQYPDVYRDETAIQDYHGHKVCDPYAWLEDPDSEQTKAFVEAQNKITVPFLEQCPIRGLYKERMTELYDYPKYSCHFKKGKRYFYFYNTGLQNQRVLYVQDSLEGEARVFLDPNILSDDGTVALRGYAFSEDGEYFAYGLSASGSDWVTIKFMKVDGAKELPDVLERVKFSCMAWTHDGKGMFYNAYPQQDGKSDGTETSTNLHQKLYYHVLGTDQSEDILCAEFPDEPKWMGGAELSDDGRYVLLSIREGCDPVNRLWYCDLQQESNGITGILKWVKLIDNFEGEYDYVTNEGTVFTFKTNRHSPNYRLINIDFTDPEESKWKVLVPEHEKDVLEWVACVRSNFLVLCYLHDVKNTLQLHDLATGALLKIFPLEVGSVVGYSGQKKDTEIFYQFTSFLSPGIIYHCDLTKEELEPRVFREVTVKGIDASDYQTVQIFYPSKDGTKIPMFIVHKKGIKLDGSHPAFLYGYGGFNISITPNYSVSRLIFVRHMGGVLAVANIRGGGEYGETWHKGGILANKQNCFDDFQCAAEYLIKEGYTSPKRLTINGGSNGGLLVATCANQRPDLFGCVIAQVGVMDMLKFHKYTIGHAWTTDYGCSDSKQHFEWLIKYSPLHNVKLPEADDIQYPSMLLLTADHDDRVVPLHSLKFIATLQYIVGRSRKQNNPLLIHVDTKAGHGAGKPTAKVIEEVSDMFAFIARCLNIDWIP

In series [1], `O=C(NCc1ccccc1)C1=C(C(=O)N2CCCC2)CCC1` returned an IC50 of 230 nM.

`O=C(NCc1ccccc1)C1=CCC[C@@H]1C(=O)N1CCC[C@H]1C(=O)CO` gave an IC50 in series [1] of 52 nM.

Compound `O=C(NCc1ccccc1)C1=CCC[C@H]1C(=O)N1CCC[C@H]1C(=O)CO` came in with an IC50 in series [1] of 0.3 nM. In addition, the logP in series [2] was 0.6. The compound further came in with a Ki in series [3] of 0.15 nM.

Consider `N#C[C@@H]1CCCN1C(=O)[C@H]1CCC=C1C(=O)CCCc1ccccc1`, for which, in series [1], half-maximal inhibition (IC50) was put at 5 nM.

Regarding `N#C[C@@H]1CCCN1C(=O)[C@@H]1CCC=C1C(=O)CCCc1ccccc1`, in series [1], half-maximal inhibition (IC50) was put at 0.2 nM. In series [2], this compound came in with a logP of 2.4. This compound also gave a Ki in series [3] of 0.03 nM.

Compound `O=C([C@@H]1CCCN1C(=O)CCCc1ccccc1)N1CCCC1` yielded a logP in series [2] of 1.8.

In turn, `O=C(CO)[C@@H]1CCCN1C(=O)[C@@H]1CCCN1C(=O)NCc1ccccc1` displayed an IC50 in series [1] of 0.2 nM. The compound further had a logP in series [2] of 0.2. In addition, in series [3], the inhibition constant (Ki) is 0.06 nM.

In series [2], `N#C[C@@H]1CCCN1C(=O)[C@@H]1CCCN1C(=O)CCCc1ccccc1` showed a logP of 1.6.

These data come from ChEMBL document CHEMBL1138806, “A cyclopent-2-enecarbonyl group mimics proline at the P2 position of prolyl oligopeptidase inhibitors” (J Med Chem, 2004).
